The values that follow come from publication PMC8318231, “Rate-of-Kill (RoK) assays to triage large compound sets for Chagas disease drug discovery: Application to GSK Chagas Box” (PLoS Neglected Tropical Diseases, 2021).

Assay [1] deals with T. cruzi intracellular amastigotes in H9c2 cells. The experiment in a line: Rate-of-Kill (RoK) high-content imaging assay, amastigotes per cell (AM/CELL) and curve descriptors. Type of assay: cell-based, Trypanosoma cruzi. Also noted: key to ME_24h / ME_48h / ME_72h: % reduction in parasite burden (cidal response); t50pct_MCC50 / t50pct_Cmax: unit not given here. The settings on record: for ME_24h: 24h; for ME_48h: 48h; for ME_72h: 72h; for ME_24h (%): maximum effect at 24 h; for ME_24h (%) / ME_48h (%) / ME_72h (%): RoK assay; for ME_48h (%): maximum effect at 48 h; for ME_72h (%): maximum effect at 72 h; for ME 24h (maximum effect at 24 hours, intracellular amastigotes): maximum percentage of parasite burden reduction reached by any concentration. A digest of the protocol:
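Readouts at each time point are amastigotes per cell and host nuclei count (cytotoxicity), from DRAQ5 high-content imaging. Infection: trypomastigotes on H9c2 at MOI 8 for 18 h. Dosing was 5 μM single point or 11 points, 1/3 steps from 50 μM. Effect scaled between 4 h infected and uninfected controls.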

Assay [2] relates to TcCYP51. Conditions: formerly reported; cited from earlier work.

SMILES strings stand for the structures.

Take `COc1ccc2c(Cl)c(C(=O)N3CCC3)sc2c1Cl` [TCMDC-143262]: in assay [1] (figure 5), the ME_24h is on record as -33.6637, the ME_48h was -143.465, the ME_72h is listed as -114.282 and the MCC50 came out at 50 µM. Also, the MCCE in assay [1] (figure 5) worked out at 16.6667. Further, the “MCCE” value in assay [1] (RoK curve descriptor) came out at 16.7 µM. Further, in assay [1] (Time 4, sheet figure 4 A), the “AM/CELL NORM” value is reported as 16.6129. Besides, the “AM/CELL NORM” value in assay [1] (Time 24, sheet figure 4 A) is recorded as -33.6637. For the same compound, in assay [1] (Time 48, sheet figure 4 A), the “AM/CELL NORM” value is on record as -143.465. Besides, the “AM/CELL NORM” value in assay [1] (Time 72, sheet figure 4 A) was -114.282. In assay [1] (at Cmax), the “tlag_Cmax” value was 48.0 h. In addition, in assay [1] (at Cmax, figure 5), the t50pct_Cmax was 72 and the tlag_Cmax was 48. Further, in assay [1] (at MCC50, figure 5), the t50pct_MCC50 came to 72 and the tlag_MCC50 is 72. Also, in assay [1], the “ME_24h (%)” value is recorded as -33.7%; the “ME_48h (%)” value is -143.5%; the “ME_72h (%)” value is reported as -114.3%; the “ME 24h (maximum effect at 24 hours, intracellular amastigotes)” value (“ME 24h” for short) was -33.6637%. Besides, in assay [2], the “CYP51 pIC50” value is reported as below 4.
Regarding `COc1ccc(NS(=O)(=O)c2cc(-c3cc(C)[nH]n3)ccc2C)cc1OC` [TCMDC-143194], in assay [1] (figure 5), the ME_24h is on record as -114.917, the ME_48h is -675.674, the ME_72h is recorded as -796.23 and the MCCE amounted to 1.237. In assay [1] (RoK curve descriptor), the “MCC50” value is 16.7 µM and the “MCCE” value was found to be 1.2 µM. Also, the “AM/CELL NORM” value in assay [1] (Time 4, figure 4 A) was 17.4808. For the same compound, the “AM/CELL NORM” value in assay [1] (Time 24, figure 4 A) is recorded as 13.7763. The “AM/CELL NORM” value in assay [1] (Time 48, figure 4 A) turned out to be 30.9676. In addition, the “AM/CELL NORM” value in assay [1] (Time 72, figure 4 A) turned out to be 53.1796. For the same compound, in assay [1] (at Cmax), the “tlag_Cmax” value came to 41.3 h. Also, in assay [1] (at Cmax, figure 5), the t50pct_Cmax was 72 and the tlag_Cmax amounted to 41.3333. Also, in assay [1] (at MCC50), the “t50%_MCC50” value amounted to 72.0 h and the “tlag_MCC50” value was found to be 24.0 h. In addition, in assay [1] (at MCC50, figure 5), the t50pct_MCC50 is reported as 72 and the tlag_MCC50 stood at 56. The same compound came in with an MCC50 in assay [1] (figure 5, in µM) of 38.8889. In addition, in assay [1], the “ME_24h (%)” value is -114.9%; the “ME_48h (%)” value is reported as -675.7%; the “ME_72h (%)” value is -796.2%; the “ME 24h” value turned out to be 24.095%. Besides, the “CYP51 pIC50” value in assay [2] is given as 4.4.
`Cc1cccc(N2CCCN(Cc3c[nH]c4ccccc34)CC2)n1` [TCMDC-143185]: in assay [1] (figure 5), the ME_24h came out at 34.1143, the ME_48h is 65.81, the ME_72h was determined as 87.1854 and the MCCE amounted to 0.6173. Moreover, in assay [1] (RoK curve descriptor), the “MCC50” value amounted to 1.9 µM and the “MCCE” value is recorded as 0.6 µM. In assay [1] (Time 4, figure 4 A), the “AM/CELL NORM” value was -11.6177. For the same compound, the “AM/CELL NORM” value in assay [1] (Time 24, figure 4 A) is 35.9083. The “AM/CELL NORM” value in assay [1] (Time 48, figure 4 A) was 66.1558. The “AM/CELL NORM” value in assay [1] (Time 72, figure 4 A) was found to be 81.0849. Further, in assay [1] (at Cmax), the “t50%_Cmax” value is 48.0 h and the “tlag_Cmax” value was 4.0 h. In assay [1] (at Cmax, figure 5), this compound returned a t50pct_Cmax of 48 and a tlag_Cmax of 4. For the same compound, in assay [1] (at MCC50), the “t50%_MCC50” value came to 48.0 h and the “tlag_MCC50” value worked out at 4.0 h. Besides, in assay [1] (at MCC50, figure 5), the t50pct_MCC50 is recorded as 48 and the tlag_MCC50 was 4. The compound further gave an MCC50 in assay [1] (figure 5, in µM) of 1.852. For the same compound, in assay [1], the “ME_24h (%)” value turned out to be 34.1%; the “ME_48h (%)” value is reported as 65.8%; the “ME_72h (%)” value is on record as 87.2%; the “ME 24h” value was found to be 84.3328%. In addition, the “CYP51 pIC50” value in assay [2] was below 4.
For `COc1cc(NC(=O)Nc2cccc(CNC(=O)OC3CCCCC3)c2)ccc1-c1cnco1` [TCMDC-143376], in assay [1] (figure 5), the ME_24h is given as -229.157, the ME_48h was -76.0857, the ME_72h is -0.198 and the MCC50 turned out to be 50 µM. In assay [1] (figure 5), the MCCE turned out to be 0.6173. In addition, in assay [1] (RoK curve descriptor), the “MCCE” value is reported as 0.6 µM. Moreover, the “AM/CELL NORM” value in assay [1] (Time 4, figure 4 A) is given as -2.926. For the same compound, the “AM/CELL NORM” value in assay [1] (Time 24, figure 4 A) is on record as -229.157. In assay [1] (Time 48, figure 4 A), the “AM/CELL NORM” value is listed as -76.0857. In addition, the “AM/CELL NORM” value in assay [1] (Time 72, figure 4 A) is listed as -16.3246. Moreover, the “tlag_Cmax” value in assay [1] (at Cmax) amounted to 24.0 h. Moreover, in assay [1] (at Cmax, figure 5), the t50pct_Cmax was found to be 72 and the tlag_Cmax was 24. In assay [1] (at MCC50, figure 5), this compound returned a t50pct_MCC50 of 72 and a tlag_MCC50 of 72. In assay [1], the “ME_24h (%)” value is listed as -229.2%; the “ME_48h (%)” value is listed as -76.1%; the “ME_72h (%)” value is on record as -0.2%; the “ME 24h” value worked out at 42.5513%. Moreover, the “CYP51 pIC50” value in assay [2] is on record as 4.6.
